Test results from ChEMBL document CHEMBL1201862, “PubChem BioAssay data set” (2004).
Calls of active or inactive are those of the source.

How the values were obtained:
[1] = target: T1, Aryl hydrocarbon receptor (Homo sapiens, UniProt P35869); experiment: Luminescence-based cell-based high throughput dose response assay for activators of the Aryl Hydrocarbon Receptor (AHR). [Related pubchem assays: 2796 (Primary screen (AHR activators in singlicate)), 2845 (Confirmation screen (AHR activators in triplicate)), 434939 (Counterscreen (PXR activators in triplicate)), 2804 (Summary (AHR activators))]; type: ADME
T1 sequence (P35869 whole entry): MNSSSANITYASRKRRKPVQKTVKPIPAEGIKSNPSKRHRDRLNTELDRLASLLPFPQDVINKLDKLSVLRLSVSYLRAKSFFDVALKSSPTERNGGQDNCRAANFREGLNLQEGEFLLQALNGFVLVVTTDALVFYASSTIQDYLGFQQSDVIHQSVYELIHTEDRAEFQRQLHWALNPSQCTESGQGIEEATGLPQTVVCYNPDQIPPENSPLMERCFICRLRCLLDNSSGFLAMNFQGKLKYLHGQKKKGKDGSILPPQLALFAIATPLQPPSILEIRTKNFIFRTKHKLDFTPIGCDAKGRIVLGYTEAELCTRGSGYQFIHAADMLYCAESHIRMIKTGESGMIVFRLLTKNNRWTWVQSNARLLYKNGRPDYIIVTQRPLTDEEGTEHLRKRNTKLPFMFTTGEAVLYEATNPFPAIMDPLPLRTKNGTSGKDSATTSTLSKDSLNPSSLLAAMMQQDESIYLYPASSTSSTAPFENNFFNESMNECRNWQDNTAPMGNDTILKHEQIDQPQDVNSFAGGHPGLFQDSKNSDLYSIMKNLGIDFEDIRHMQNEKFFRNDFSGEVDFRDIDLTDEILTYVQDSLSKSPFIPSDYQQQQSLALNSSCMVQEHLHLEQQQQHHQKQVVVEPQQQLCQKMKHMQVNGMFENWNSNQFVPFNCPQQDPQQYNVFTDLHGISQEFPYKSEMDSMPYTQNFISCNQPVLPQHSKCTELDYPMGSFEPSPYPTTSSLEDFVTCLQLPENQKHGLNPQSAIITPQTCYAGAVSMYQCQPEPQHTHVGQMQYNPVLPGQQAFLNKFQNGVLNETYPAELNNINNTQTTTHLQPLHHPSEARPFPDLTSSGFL

[2] = HPDE-C7 pancreatic duct cell viability loss – fluorescence, HTS (AID 430); type: functional, cell-based; details: Homo sapiens
Streptococcus = experiment: GAS UMAA2166 growth inhibition – luminescence, BacTiterGlo, counter-screen for streptokinase expression inhibitor project, dose response (AID 1915); type: functional, organism-based;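 note: potency for reduction of bacterial viability or growth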
[3] = tested on: Streptococcus sp. 'group A'; experiment: Streptococcus pyogenes SK(-)GAS viability under kanamycin – luminescence, BacTiterGlo, confirmation, counter-screen for streptokinase expression inhibitor project, dose response (AID 1900); type: functional, organism-based
Streptokinase A = target: T2, Streptokinase A (Streptococcus pyogenes serotype M1, UniProt P10520); experiment: viability-normalized secreted streptokinase activity reduction – plasminogen activation absorbance, OD405, dose response (AID 1914); type: functional, Streptococcus pyogenes M1 GAS;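 note: secreted streptokinase activity via plasminogen activation per viability signal from cell pellet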
T2 sequence (P10520 whole entry): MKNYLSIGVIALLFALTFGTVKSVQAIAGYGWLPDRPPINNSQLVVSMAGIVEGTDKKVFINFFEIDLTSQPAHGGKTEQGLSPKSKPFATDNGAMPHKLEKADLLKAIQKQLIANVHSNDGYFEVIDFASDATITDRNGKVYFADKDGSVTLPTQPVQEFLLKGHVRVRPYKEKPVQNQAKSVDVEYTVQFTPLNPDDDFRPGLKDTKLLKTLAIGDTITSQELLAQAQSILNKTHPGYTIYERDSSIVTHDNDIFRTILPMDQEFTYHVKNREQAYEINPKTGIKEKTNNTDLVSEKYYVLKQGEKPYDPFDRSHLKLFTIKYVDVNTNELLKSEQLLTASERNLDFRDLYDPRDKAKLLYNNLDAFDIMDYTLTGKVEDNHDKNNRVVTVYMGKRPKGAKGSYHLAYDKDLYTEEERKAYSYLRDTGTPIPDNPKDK

[4] = Trypanosoma cruzi growth suppression in host cells – NIH3T3 host cells, beta-gal luminescence, confirmation (AID 2044); type: functional, cell-based;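 note: intracellular parasites grown in NIH/3T3 mouse fibroblasts as host cells; luminescent beta-galactosidase reporter signal from transgenic T. cruzi replicating inside host cells; inhibitors lower the luminescence signal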
[5] = viability loss of HPDE-C7K cells – cell-based, fluorescence, HTS, primary screen (AID 431); type: functional; details: Homo sapiens
[6] = NIH3T3 cell viability loss – ATP luminescence, mouse fibroblasts, counter-screen, dose response (AID 2010); type: functional, cell-based;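 note: cells exposed to compound for about 90 hours before reading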
[7] = target: Sphingosine 1-phosphate receptor 2 (Homo sapiens, UniProt O95136); experiment: Dose Response Cell Based Assay for Antagonists of the S1P2 Receptor. [Related pubchem assays: 856, 736 ]; type: functional
Ephrin type-A receptor 4 = Ephrin type-A receptor 4 (Mus musculus, UniProt Q03137); experiment: EphA4 ligand-binding antagonists – biochemical, colorimetric, mouse EphA4, primary screen (AID 689); type: functional
[8] = target: Luciferin 4-monooxygenase (Photinus pyralis, UniProt P08659); experiment: inhibition of purified Photinus pyralis luciferase – biochemical, luminescence, dose response (AID 1891)
[9] = target: Oxysterols receptor LXR-beta (Homo sapiens, UniProt P55055); experiment: LXR agonists, Gal4 luciferase reporter, dose response, counter-screen for ssDAF-12 agonist project, cell-based, luminescence, HEK293, S. stercoralis campaign (AID 720737); type: functional; details: read-out: IC50 (the source's name)
[10] = Luminescence Cell-Based Dose Confirmation HTS to Identify Inhibitors of Platelet Dense Granule Release. [Related pubchem assays: 1663 (Primary HTS), 1678 (Summary of Project)]; type: functional
[11] = Luminescence-based cell-based high throughput dose response assay to identify activators of the DAF-12 from the parasite S. stercoralis (ssDAF-12).; type: functional
[12] = reduced cellular PGC1a acetyl-lysine signal – cell-based, cherry-picked samples, dose response (AID 720514); type: functional;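 note: potency may reflect raised or lowered acetylation signal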
[13] = PAX8-dependent cell viability loss – plate reader, dry powder, dose response (AID 743049); type: functional, cell-based
[14] = OVCAR-3 cell viability loss – plate reader, dry powder samples, PAX8 inhibitor project, dose response (AID 743044); type: functional, cell-based
[15] = PAX5 cellular inhibition readout – cell-based, plate reader, dry powder samples, selectivity assay for PAX8 inhibitor project, dose response (AID 743047); type: functional;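 note: HEK293 cells carrying a Pax5 driven CD19 promoter luciferase reporter; potency of inhibitors that lower reporter luminescence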
[16] = OV-90 cell viability loss – plate reader, dry powder, SA8, PAX8 inhibitor project, dose response (AID 743149); type: functional, cell-based
[17] = inhibitors acting on PAX2 in cells – cell-based, plate reader, dry powder samples, selectivity assay for PAX8 inhibitor project, dose response (AID 743048); type: functional;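 note: HEK293 cells carrying a WT1 promoter luciferase reporter driven by expressed Pax2; potency is for inhibition of Pax2 driven reporter signal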
[18] = toxicity to human hepatoma HepG2 cells – cell-based, cherry-picked samples, cytotoxicity control, dose response (AID 1159577); type: functional
[19] = P. falciparum Dd2 growth inhibitors, dose response, SYBR Green, cherry-picked samples (AID 1159567); type: functional, cell-based
[20] = toxicity to human HepG2 hepatoma cells – cell-based, plate reader, dry powder samples, cytotoxicity control, dose response (AID 1159569); type: functional;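 note: inhibitor potency with signal falling toward the positive control level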
[21] = growth inhibition of yeast DHODH-expressing 3D7 parasites – SYBR Green, dry powder samples, dose response (AID 1159570); type: functional, cell-based;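 note: parasite growth measured after 72 hours of compound exposure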
[22] = growth inhibition of PfATP4-mutant resistant parasites – NITD609-resistant line, SYBR Green, dry powder, dose response (AID 1159571); type: functional, cell-based;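 note: parasites synchronized at ring stage by sorbitol before testing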
[23] = Dd2 malaria parasite growth inhibition potency – SYBR Green, dry powder samples, dose response (AID 1159566); type: functional, cell-based;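 note: potency for growth inhibition with lower SYBR green DNA signal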
[24] = rise of 4N DNA cells, HeLa – IC50, dose response (AID 1117351); type: functional, cell-based
[25] = rise of 2N DNA cells, HeLa – IC50, dose response (AID 1117349); type: functional, cell-based

Sequence of Ephrin type-A receptor 4 (Q03137 whole entry): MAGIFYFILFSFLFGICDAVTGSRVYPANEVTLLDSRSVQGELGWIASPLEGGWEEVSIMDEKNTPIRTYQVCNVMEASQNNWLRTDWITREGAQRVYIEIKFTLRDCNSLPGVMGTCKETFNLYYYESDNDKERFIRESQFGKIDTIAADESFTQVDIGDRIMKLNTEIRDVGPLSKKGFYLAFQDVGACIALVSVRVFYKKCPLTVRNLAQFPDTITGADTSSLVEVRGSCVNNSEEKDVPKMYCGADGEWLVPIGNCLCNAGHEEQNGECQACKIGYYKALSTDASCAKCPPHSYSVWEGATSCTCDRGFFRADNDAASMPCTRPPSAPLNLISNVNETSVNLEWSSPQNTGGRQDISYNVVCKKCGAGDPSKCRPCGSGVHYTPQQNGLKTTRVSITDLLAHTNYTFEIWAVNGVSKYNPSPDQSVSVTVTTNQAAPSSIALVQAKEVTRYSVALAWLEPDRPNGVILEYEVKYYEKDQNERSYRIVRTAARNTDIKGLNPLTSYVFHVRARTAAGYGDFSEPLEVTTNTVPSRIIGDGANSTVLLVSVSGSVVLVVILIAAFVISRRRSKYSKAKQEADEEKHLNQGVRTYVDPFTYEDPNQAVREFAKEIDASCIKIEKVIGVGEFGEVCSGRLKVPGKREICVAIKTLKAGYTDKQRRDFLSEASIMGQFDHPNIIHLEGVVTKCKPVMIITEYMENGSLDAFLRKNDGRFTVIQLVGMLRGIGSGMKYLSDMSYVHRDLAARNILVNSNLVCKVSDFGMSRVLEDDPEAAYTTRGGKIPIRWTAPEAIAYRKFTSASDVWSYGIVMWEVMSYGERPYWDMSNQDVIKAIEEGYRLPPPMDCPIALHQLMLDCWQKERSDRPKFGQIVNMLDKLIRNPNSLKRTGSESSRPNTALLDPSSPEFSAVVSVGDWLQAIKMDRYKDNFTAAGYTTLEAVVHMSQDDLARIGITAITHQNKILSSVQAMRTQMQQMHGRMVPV
Sequence of Oxysterols receptor LXR-beta (P55055 whole entry, the tested form may be a part): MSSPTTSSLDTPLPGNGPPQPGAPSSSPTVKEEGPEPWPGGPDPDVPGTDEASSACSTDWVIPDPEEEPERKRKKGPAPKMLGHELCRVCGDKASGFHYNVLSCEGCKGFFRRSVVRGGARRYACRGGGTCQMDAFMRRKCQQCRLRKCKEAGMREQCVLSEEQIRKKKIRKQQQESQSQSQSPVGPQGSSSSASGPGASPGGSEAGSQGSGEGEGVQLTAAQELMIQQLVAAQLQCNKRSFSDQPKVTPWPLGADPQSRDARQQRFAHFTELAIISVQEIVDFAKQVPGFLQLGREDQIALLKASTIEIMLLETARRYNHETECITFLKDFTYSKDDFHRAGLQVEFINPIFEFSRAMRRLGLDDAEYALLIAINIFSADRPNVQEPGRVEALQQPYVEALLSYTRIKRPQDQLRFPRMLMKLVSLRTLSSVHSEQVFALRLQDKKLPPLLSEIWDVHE
Sequence of Luciferin 4-monooxygenase (P08659 whole entry, the tested form may be a part): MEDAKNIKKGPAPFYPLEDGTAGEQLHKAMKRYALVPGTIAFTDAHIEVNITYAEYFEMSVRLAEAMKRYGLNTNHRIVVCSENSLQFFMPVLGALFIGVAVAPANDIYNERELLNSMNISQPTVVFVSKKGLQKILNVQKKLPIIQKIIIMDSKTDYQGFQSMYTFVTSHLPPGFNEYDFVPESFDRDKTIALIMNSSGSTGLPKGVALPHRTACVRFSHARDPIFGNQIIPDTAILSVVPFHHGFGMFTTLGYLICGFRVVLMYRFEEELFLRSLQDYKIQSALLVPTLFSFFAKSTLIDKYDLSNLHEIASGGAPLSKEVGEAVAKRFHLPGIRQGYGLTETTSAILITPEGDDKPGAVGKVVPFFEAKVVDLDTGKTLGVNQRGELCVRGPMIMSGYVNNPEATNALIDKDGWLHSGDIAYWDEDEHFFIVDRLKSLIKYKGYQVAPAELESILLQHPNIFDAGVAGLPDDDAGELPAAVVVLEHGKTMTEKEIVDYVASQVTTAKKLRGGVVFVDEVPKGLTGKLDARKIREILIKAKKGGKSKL
Sequence of Sphingosine 1-phosphate receptor 2 (O95136 whole entry): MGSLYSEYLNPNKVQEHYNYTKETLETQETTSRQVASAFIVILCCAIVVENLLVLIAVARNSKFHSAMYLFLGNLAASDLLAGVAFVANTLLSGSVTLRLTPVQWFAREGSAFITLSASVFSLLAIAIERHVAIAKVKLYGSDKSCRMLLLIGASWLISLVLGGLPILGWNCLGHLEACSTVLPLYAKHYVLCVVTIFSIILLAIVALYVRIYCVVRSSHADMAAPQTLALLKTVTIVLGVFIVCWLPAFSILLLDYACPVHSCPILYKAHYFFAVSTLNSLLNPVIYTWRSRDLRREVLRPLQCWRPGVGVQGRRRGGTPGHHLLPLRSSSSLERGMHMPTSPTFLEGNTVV

Cc1csc(NC(=O)CSc2ccc3nnc(-c4ccncc4)n3n2)n1
EC50 [1]: 12 µM (not active)

N#C/C(=C/c1ccc(N2CCCCCC2)o1)c1ccc(F)cc1
EC50 [2]: 13.6 µM (active)
EC50 (Streptococcus): > 150 µM (not active)
EC50 [3]: 19.2 µM (active)
EC50 (Streptokinase A): 16 µM (active)
EC50 [4]: 3.49 µM (active)
EC50 [5]: 14.1 µM (active)
EC50 [6]: 9.44 µM (active)
IC50 [7]: 11.5 µM (not active)

COc1ccc(/C=c2\sc3nc(-c4ccccc4)c(-c4ccccc4)n3c2=O)cc1OC
IC50 (Ephrin type-A receptor 4): 8.12 µM (active)

N/C(=N\N=C\c1cccc(O)c1)c1nonc1N
EC50 [8]: 3.47 µM (active)
EC50 [9]: > 67.5 µM (inactive)
EC50 [10]: 1.75 µM (active)
IC50 [11]: > 67.5 µM (inactive)

C[C@H](CO)N1C[C@H](C)[C@@H](CN(C)C(=O)C2CCCCC2)Oc2cc(C#Cc3ccncc3)ccc2S1(=O)=O
AC50 [12]: 9.86 µM (active)

COC(=O)[C@@]1(CCS(=O)(=O)c2ccccc2)N=C(c2ccc(OCCCO)cc2)O[C@H]1c1ccccc1
AC50 [13]: > 100 µM (inactive)
AC50 [14]: 95 µM (active)
AC50 [15]: 77.3 µM (active)
AC50 [16]: 14.1 µM (active)
AC50 [17]: 58.6 µM (active)

Cc1ccc(-c2ccc3c(c2)O[C@H](CN(C)Cc2ccncc2)[C@@H](C)CN([C@H](C)CO)S3(=O)=O)cc1
AC50 [18]: 22.1 µM (active)
AC50 [19]: 5.12 µM (active)

COc1cc(CN2C[C@@H]3N[C@H](C2)[C@@H]3c2ccc(-c3ccncc3)cc2)cc(OC)c1
AC50 [18]: > 39 µM (inactive)
AC50 [20]: 18.7 µM (active)
AC50 [21]: 2.53 µM (active)
AC50 [22]: 1.9 µM (active)
AC50 [23]: 1.92 µM (active)
AC50 [19]: 2.11 µM (active)

COCC#Cc1ccc([C@@H]2[C@H](CO)N3CCCCN(S(=O)(=O)c4ccc(OC)cc4)C[C@@H]23)cc1
AC50 [20]: 98.4 µM (active)
AC50 [21]: 1.81 µM (active)
AC50 [22]: 1.48 µM (active)
AC50 [23]: 1.33 µM (active)
AC50 [19]: 2.47 µM (active)

COCCOC(=O)C1=C(C)NC(C)=C(C(=O)OC/C=C/c2ccccc2)C1c1cccc([N+](=O)[O-])c1 (configuration not stated) [CILNIDIPINE]
IC50 [24]: > 10 µM (inactive)
IC50 [25]: > 10 µM (inactive)

COC(=O)[C@H]1[C@H]2C[C@@H]3c4[nH]c5cc(OC)ccc5c4CCN3C[C@H]2C[C@@H](OC(=O)/C=C/c2ccc(O)c(OC)c2)[C@@H]1OC [RESCIMETOL]
IC50 [24]: > 10 µM (inactive)
IC50 [25]: > 10 µM (inactive)
